This is an account of results in patent US7842683B2, “Neurotherapeutic compositions and method” (Revaax Pharmaceuticals, LLC, priority 1999, dated 2010).

One data set relates to male golden hamsters. Put plainly: Resident/intruder paradigm of offensive aggression. The class given is in vivo, Syrian golden hamsters (Mesocricetus auratus). Here is the method: Male Syrian golden hamsters (Mesocricetus auratus) (140-150 g) obtained from Harlan Sprague-Dawley Laboratories (Indianapolis, Ind.) were housed individually in Plexiglas cages (24 cm×24 cm×20 cm), maintained on a reverse light:dark cycle (14L:10D; lights on at 19:00 hr) and provided food and water ad libitum. Animals were acclimated to the reverse light:dark cycle for at least two weeks before testing. All behavioral tests were conducted during the dark phase of the circadian cycle. All animals were acquired and cared for in accordance with the guidelines published in the Guide for the Care and Use of Laboratory Animals (National Institutes of Health Publications No. 85-23, Revised 1985).
(§1) Agonistic behavior can be classified as either offensive or defensive aggression (Blanchard and Blanchard, 1977; Adams, […]; Albert and Walsh, 1984). Offensive aggression is characterized by the aggressor initiating an attack on an opponent, while defensive aggression lacks active approach. Both types of aggression have their own unique neurobehavioral systems. The stimuli that elicit offensive and defense attack are different, as are the sequences of behaviors that accompany each agonistic response. […] Offensive aggression is easily studied using male golden hamsters tested in a resident/intruder paradigm, an established model of offensive aggression (Ferris and Potegal 1988). Placing an unfamiliar male hamster into the home cage of another male hamster elicits a well-defined sequence of agonistic behaviors from the resident that includes offensive aggression.
Hamsters are nocturnal and as such all behavioral tests were performed during the first four hrs of the dark phase under dim red illumination. The resident was scored for offensive aggression, e.g., latency to bite the intruder, the total number of bites, total contact time with the intruder and flank marking over a 10 min test period (Ferris and Potegal, 1988). Flank marking is a form of olfactory communication in which a hamsters arches its back and rubs pheromone producing flank glands against objects in the environment (Johnson, 1986).
Parametric data, i.e., latencies and contact time, were analyzed with a one-way ANOVA followed by Newman-Keuls post hoc tests. Non parametric data, i.e., number of bites and flank marks, were analyzed with Kruskal-Wallis tests followed by Mann-Whitney U tests to determine differences between groups. Two sample comparisons were analyzed with paired and unpaired t-Tests for parametric data and Wilcoxon and Mann-Whitney Tests for paired and unpaired non-parametric data, respectively.
as §1, with “by an” for “by the”, “an opponent; while,” for “an opponent, while”, “Potegal 1988) in the context of defending the home burrow.” for “Potegal 1988).”
Hamsters are nocturnal and as such all behavioral tests were performed during the first four hrs of the dark phase under dim red illumination. The resident was scored for offensive aggression, e.g., latency to bite the intruder, the total number of bites, total contact time with the intruder and flank marking over a 10 min test period (Ferris and Potegal, 1988). […]

For data set [1] the following is noted: in vivo; cited from earlier work.
Data set [2] is described as follows: Estimated fluid and brain concentrations after dosing hamsters. It counts as in vivo, hamster. Here is the method: The adult male hamsters used in these studies weighed around 125 g. […] CLAV has a volume of distribution approximating the extracellular fluid volume. The extracellular water content of lean body mass is approximately 22%.
(§2) To this end, animals were treated with N-acetyl-beta-aspartyl-glutamic acid (beta-NAAG), a competitive inhibitor of NAALADase (Serval et al., 1992) and tested in the seed finding model of anxiety. The study was similar to that outlined in Section I with one notable exception. […] Beta-NAAG (FW 304) was given in a dose of 3 ng in a volume of 1 μl saline ICV. The average adult hamster brain weights ca. 1.2 g of which 22% is extracellular fluid.

For the next data set, the system named is golden hamsters. Put plainly: Seed finding model of anxiety. It counts as in vivo, Syrian golden hamsters (Mesocricetus auratus).
Text: Clavulanic acid (CLAV) is structurally similar to the beta-lactam antibiotics. A most robust and simple bioassay for screening beta-lactams for CNS activity is the golden hamster seed finding model of anxiety. Briefly, hamsters are deprived of food overnight. The following day they are exposed to the additional stress of being taken from their home cage and placed in a novel environment for a few minutes. This manipulation stimulates the release of the stress hormone cortisol (FIG. 37). During their absence from the home cage, sunflower seeds are hidden under the bedding in one of the corners. When returned to the home cage, hamsters routinely scramble along the walls for 1-2 min before settling down, locating and eating the seeds. However, animals treated with the benzodiazepine anxiolytic chlordiazepoxide find seeds in less than 10 sec.
Male, Syrian golden hamsters (Mesocricetus auratus) (120-130 g) obtained from Harlan Sprague-Dawley Laboratories (Indianapolis, Ind.) were housed individually in Plexiglas cages (24 cm×24 cm×20 cm), maintained on a reverse light:dark cycle (14L:10D; lights on at 19:00 hr) and provided food and water ad libitum. A range of concentrations of CLAV (saline vehicle, 0.1, 1.0, 10, 100 1,000 ng/kg) were tested in six groups of hamsters (4-8/group)(FIG. 25). All tests were conducted during the dark phase of the circadian cycle under dim red illumination. Prior to testing all animals were fasted for 20-24 hrs. Ninety min after intraperitoneal (IP) injection of drug, animals were taken from their home cage and placed into a holding cage for 2 min. During their absence, six sunflower seeds were buried under the bedding in one corner of their home cage. Animals were placed back into their home cage randomly facing any one of the empty corners and timed for their latency to find the seeds in a five min observation period. Latency times were analyzed with a one-way ANOVA followed by Scheffe's post hoc tests. Assumption of equal variances was tested (Hartley's F-max=2.1 p>0.05)
as §2, with “It was hypothesized that CLAV functioned as an anxiolytic in the seed finding assay by blocking NAALADase activity in the brain. If this notion were true then it would be predicted that drugs known to block NAALADase should also enhance seed finding. To” for “To”, “fluid. The estimated beta-NAAG concentration was 11 ng/ml or 36 nM.” for “fluid.”
Two groups of six animals each were fasted overnight as previously described and tested the following day. One group was treated with beta-NAAG and the other saline vehicle and one hr later timed for latency to find the hidden sunflower seeds. A Student t-test for unpaired data was used for statistical comparisons.

A further data set relates to hamsters. Put plainly: Olfactory discrimination: latency to find hidden sunflower seeds. The class given is in vivo, Syrian golden hamsters (Mesocricetus auratus). To be noted: 1 mg/kg intracerebroventricular, sixty min, five min observation. As to the method:
Sixteen animals were treated with vehicle or 50 μg/kg Mox and tested for olfactory discrimination by measuring their latency to find hidden sunflower seeds (FIG. 5). The injections were counterbalanced with each animal receiving each treatment. Prior to testing animals were fasted for 24 hrs. Ninety minutes after injection animals were briefly taken from their home cage while six sunflower seeds were buried under the bedding in one corner. Animals were placed back into their home cage and scored for the latency to find the seeds in a ten min observation period. […] In fact, not one of the sixteen animals consumed all of the seeds following saline as compared to all animals treated with Mox.
Six animals received an intracerebroventricular injection of vehicle or 1 mg/kg PPP and tested for olfactory discrimination by measuring their latency to find hidden sunflower seeds (FIG. 16). The injections were counterbalanced with each animal receiving each treatment. Prior to testing animals were fasted for 24 hrs. Sixty min. After injection animals were briefly taken from their home cage while six sunflower seeds were buried under the bedding in one corner. Animals were placed back into their home cage and scored for the latency to find the seeds in a five min. Observation period.

Where [3] appears, read: high dose ca. 5 mg/kg, 9 mM, IP.
The mark [4] stands for this setting: high dose ca. 5 mg/kg, 9 mM, IP, 90 min.

For `CC1(C)S[C@@H]2[C@H](NC(=O)[C@H](N)c3ccc(O)cc3)C(=O)N2[C@H]1C(=O)O` [Amox, Amoxicillin], the aggressive behavior result with male golden hamsters (1 mg/kg (ca. 2 mM) IP, 90 min) is “not significantly altered”. Moreover, in the data set on male golden hamsters (equimolar (90 μM) IP, 90 min), the contact time result is listed as “no significant treatment effect” and the flank marking entry was “no significant treatment effect”.
On to `CC1(C)S[C@@H]2[C@H](NC(=O)[C@H](N)c3ccccc3)C(=O)N2[C@H]1C(=O)O` [Amp, Ampicillin], for which, in the data set on male golden hamsters (equimolar (90 μM) IP, 90 min), the contact time result was “no significant treatment effect”, the flank marking entry was “no significant treatment effect” and the number of bites result is “significantly reduced”. Further, the latency to bite result in the data set with male golden hamsters (equimolar (90 μM, equal to 50 μg/kg Mox) IP, 90 min) is on record as “significantly delayed”. Further, in the data set with male golden hamsters (setting [3]), the contact time result is “no significant treatment effect” and the flank marking result is on record as “no significant treatment effect”. Also, in the data set on male golden hamsters (setting [4]), the latency to bite result was “significantly delayed” and the number of bites entry is given as “significantly reduced”.
Consider `CC1(C)S[C@@H]2[C@H](NC(=O)C(C(=O)O)c3ccccc3)C(=O)N2[C@H]1C(=O)O` (stereo partly drawn) [Carb, Carbenicillin], for which, in the data set on male golden hamsters (equimolar (90 μM) IP, 90 min), the contact time result is “no significant treatment effect” and the flank marking result was “no significant treatment effect”. In addition, in the data set on male golden hamsters (setting [3]), the contact time result is “no significant treatment effect” and the flank marking result is recorded as “no significant treatment effect”. Further, in the data set on male golden hamsters (setting [4]), the latency to bite result is recorded as “significantly delayed” and the number of bites entry was “significantly reduced”.
Turning to `CO[C@@]1(NC(=O)Cc2cccs2)C(=O)N2C(C(=O)O)=C(COC(N)=O)CS[C@@H]21` [Cef, Cefoxitin], the “blood-brain barrier transport / CNS penetrability” value in data set [1] was “poor CNS penetrability”. In the data set with male golden hamsters (equimolar (90 μM) IP, 90 min), the contact time result is on record as “no significant treatment effect” and the flank marking entry is reported as “no significant treatment effect”. Also, in the data set with male golden hamsters (setting [3]), the contact time entry is recorded as “no significant treatment effect” and the flank marking entry is “no significant treatment effect”.
For `CC(=O)N[C@@H](CC(=O)N[C@@H](CCC(=O)O)C(=O)O)C(=O)O` [beta-NAAG, N-acetyl-beta-aspartyl-glutamic acid], in data set [1], the “blood-brain barrier transport / CNS penetrability” value is reported as “does not readily cross the blood-brain barrier”. For the same compound, the “estimated concentration in brain extracellular fluid (molar)” value in data set [2] (beta-NAAG 3 ng ICV, FW 304) is on record as 36 nM. In addition, the “estimated concentration in brain extracellular fluid” value in data set [2] (beta-NAAG 3 ng in 1 μl ICV, brain ca. 1.2 g, 22% extracellular fluid) is 11 ng/mL. Further, the “measures of offensive aggression (latency to bite, bites, contact time, flank marking)” value in the data set on male golden hamsters (3 ng ICV, after the seed finding assay) is “no significant differences”. The “latency to find the seeds vs saline vehicle” value in the data set on golden hamsters (3 ng ICV, one hr, five min observation) is “significantly (p<0.001) different”. In the data set on golden hamsters (3 ng/μl microinjected, former vehicle animals three days later), the “mean latency to find the seeds” value was 21.8 ± 9.7 s.
Turning to Ala-D-γ-Glu-Lys-D-Ala-D-Ala [PPP], the “latency to find the seed” value in the data set on hamsters is listed as “significantly (p<0.05) reduced”. In the data set with male golden hamsters (ca. 1 mg/kg ICV), the contact time result is listed as “no significant difference” and the flank marking result is “no significant difference”. In the data set on male golden hamsters (ca. 1 mg/kg ICV, sixty minutes), the number of bites result is “reduced”. In addition, in the data set with male golden hamsters (ca. 1 mg/kg in 1 μl into lateral ventricle, sixty minutes), the latency to bite entry is recorded as “significantly increased”.
